Consider four molecules from patent US20120322827A1, “COMPOUNDS AND METHODS” (priority 2010, published 2012).

The experiment deals with T1, Recombinant HDAC9 isoform 4 (Homo sapiens, UniProt Q9UKV0).
T1 construct: purchased BPS Bioscience
T1 sequence (Q9UKV0 1-1066 isoform Q9UKV0-5): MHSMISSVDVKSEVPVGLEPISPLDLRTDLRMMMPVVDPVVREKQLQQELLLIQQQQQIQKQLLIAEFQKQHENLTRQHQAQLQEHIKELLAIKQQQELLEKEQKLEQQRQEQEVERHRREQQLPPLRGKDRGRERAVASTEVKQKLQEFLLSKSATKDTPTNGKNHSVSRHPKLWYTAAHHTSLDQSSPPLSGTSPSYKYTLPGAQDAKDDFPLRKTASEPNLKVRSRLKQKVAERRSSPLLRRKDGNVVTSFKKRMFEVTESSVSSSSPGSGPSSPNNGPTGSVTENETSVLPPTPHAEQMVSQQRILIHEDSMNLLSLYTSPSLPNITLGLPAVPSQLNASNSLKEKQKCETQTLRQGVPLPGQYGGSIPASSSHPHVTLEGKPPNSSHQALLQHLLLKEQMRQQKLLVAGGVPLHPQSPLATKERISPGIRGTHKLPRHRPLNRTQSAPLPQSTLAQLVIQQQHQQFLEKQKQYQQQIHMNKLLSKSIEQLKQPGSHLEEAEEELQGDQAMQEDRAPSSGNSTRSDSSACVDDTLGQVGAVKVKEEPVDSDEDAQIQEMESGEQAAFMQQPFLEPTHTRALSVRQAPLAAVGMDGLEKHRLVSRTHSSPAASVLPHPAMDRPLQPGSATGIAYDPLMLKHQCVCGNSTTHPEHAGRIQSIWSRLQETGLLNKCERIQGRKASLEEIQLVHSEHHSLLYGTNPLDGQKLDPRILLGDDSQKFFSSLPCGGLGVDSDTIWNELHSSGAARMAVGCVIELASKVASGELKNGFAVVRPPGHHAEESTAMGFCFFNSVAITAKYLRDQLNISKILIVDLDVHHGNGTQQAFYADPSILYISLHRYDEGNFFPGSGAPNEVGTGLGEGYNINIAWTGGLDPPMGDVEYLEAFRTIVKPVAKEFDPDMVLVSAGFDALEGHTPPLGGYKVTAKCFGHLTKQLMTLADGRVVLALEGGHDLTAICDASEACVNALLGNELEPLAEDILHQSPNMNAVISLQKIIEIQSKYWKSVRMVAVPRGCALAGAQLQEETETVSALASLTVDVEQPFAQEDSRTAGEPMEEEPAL
Briefly: Histone Deacetylase 9 (HDAC9) inhibition assay, fluorogenic substrate. It counts as biochemical. The conditions noted are these: mean of a minimum of 2 experiments; 11 point 3x dilution series from 100 uM; 45 minutes incubation at room temperature; read-out: mean pIC50 of HDAC9 inhibition (converted). An excerpt: Histone Deacetylase 9 (HDAC9) Inhibition Assay:
Novel histone deacetylase 9 (HDAC9) inhibitors were characterized in an in vitro biochemical functional assay. The assay measures the increased fluorescent signal due to deacetylation, by HDAC9, of a fluorogenic substrate. The commercial available substrate is Class IIa HDAC-specific and contains an acetylated lysine residue and would releases the fluorescent signal upon trypsin cleavage after deacetylation.
Specifically, test compounds diluted to various concentrations in 100% DMSO are first dispensed into 384-well assay plates. Recombinant HDAC9 isoform 4 (purchased from BPS Bioscience) in complete assay buffer (50 mM Tris-HCl, pH 8.0, 137 mM NaCl, 2.7 mM KCl, 1 mM MgCl2, 0.05% BSA & 0.005% Tween 20) were then added to each well (5 uL/well) using Multidrop Combi (Thermo Scientific), followed by 5 uL/well substrate (purchased from BPS Bioscience, 4.5 uM final). After 45 minutes incubation at room temperature, 10 uL 2× developer solution (assay buffer with 40 uM Trypsin and 20 uM Trichostatin A) was added. The plates were then incubated 1 hour at room temperature before reading in fluorescent intensity mode at 450 nm in an Envision (Perkin Elmer) plate reader. Percent Inhibition of HDAC9 activity by compounds in each test wells was calculated by normalizing to fluorescent signal in control wells containing DMSO only.
For dose response experiments, normalized data were fit by ABASE/XC50 using the equation y=a+(b−a)/(1+(10̂×/10̂c)̂d), where a is the minimum % activity, b is the maximum % activity, c is the pIC50, d is the Hill slope.
In the case of `CC(C)(CNC(=O)CCCc1noc(C(F)(F)F)n1)c1coc(-c2ccc(F)cc2)n1` [Example 3, N-(2-(2-(4-Fluorophenyl)oxazol-4-yl)-2-methylpropyl)-4-(5-(trifluoromethyl)-1,2,4-oxadiazol-3-yl)butanamide], the IC50 was below 1000 nM.

Turning to `CN(C)CCC(CNC(=O)CCCc1noc(C(F)(F)F)n1)c1coc(-c2ccc(F)cc2)n1` (stereo not shown) [Example 4, N-(4-(Dimethylamino)-2-(2-(4-fluorophenyl)oxazol-4-yl)butyl)-4-(5-(trifluoromethyl)-1,2,4-oxadiazol-3-yl)butanamide], the IC50 is below 1000 nM.

In the case of `CN(C)CCC(CNC(=O)CCCc1ccc(C(=O)C(F)(F)F)s1)c1coc(-c2ccc(F)cc2)n1` (stereo not shown) [Example 18, N-(4-(Dimethylamino)-2-(2-(4-fluorophenyl)oxazol-4-yl)butyl)-4-(5-(2,2,2-trifluoroacetyl)thiophen-2-yl)butanamide], the IC50 is below 1000 nM.

As for `CN1CCC(CNC(=O)CCCc2noc(C(F)(F)F)n2)(c2coc(-c3ccc(F)cc3)n2)CC1` [Example 5, N-((4-(2-(4-Fluorophenyl)oxazol-4-yl)-1-methylpiperidin-4-yl)methyl)-4-(5-(trifluoromethyl)-1,2,4-oxadiazol-3-yl)butanamide], the IC50 is below 1000 nM.
